# In US10858335B2 (Rigel Pharmaceuticals, Inc., priority 2014, dated 2020):
# System: GDF8 signaling (p-SMAD-3 (Ser423/425))
# Assay: AlphaScreen SureFire SMAD3 (p-Ser423/425) assay, GDF8-stimulated cells (GDF pSMAD)
# Assay type: cell-based
# Details: Mus musculus, MPC-11, MPC11; GDF8-stimulated; p-SMAD3 AlphaScreen; read-out: GDF pSMAD (MPC11) (inhibition of GDF8 signaling)
# Excerpt: Biological Example 1: AlphaScreen® SureFire® SMAD3 (p-Ser423/425) Assay
# The p-SMAD-3 (Ser423/425) SureFire® assay has been designed to measure the phosphorylation of endogenous cellular p-SMAD-3 (Ser423/425) in cell lysates and is a system for the screening of both modulators of receptor activation (e.g. agonists and antagonists) as well as agents acting intracellularly, such as small molecule inhibitors of upstream events. The assay will measure p-SMAD-3 (Ser423/425) activation by either cloned or endogenous receptors, and can be applied to primary cells.
# P-SMAD-3 (Ser423/425) SureFire® Assay Protocols
# Step A: Preparation of Buffers
# 1× Lysis buffer: 1 ml of 5× Lysis buffer was diluted with 4 ml of sterile water. After dilution, excess 1× Lysis buffer can be frozen and thawed up to 5 times without loss in activity.
# Activation buffer: The buffer was warmed slowly to 37° C. and gently mixed to re-suspend. Activation buffer can be stored at room temperature with no loss in activity.
# Reaction buffer: The buffer was kept at 4° C. while in use.
# AlphaScreen® Protein A IgG Kit: The kit was stored at 4° C. in the dark.
# Reaction buffer+Activation buffer+AlphaScreen® Acceptor beads: Reaction buffer (40 parts), Activation Buffer (10 parts) and Acceptor beads (1 part) were mixed and the mixture was stored at room temperature and used the same day. Mixture was added to 384-well plates; excess mixture was discarded.
# Dilution buffer+AlphaScreen® Donor beads: Dilution buffer (20 parts) and Donor beads (1 part) were mixed and the mixture was stored at room temperature and used the same day. Excess mixture was discarded.
# Assay control samples: After reconstitution in 250 μl of water, lysates were at −20° C. in single use aliquots.
# Step B: Preparation of Samples and Cells
# 96-well Assay Protocol for 293FT and RMS13 adherent cells can be carried out manually or in high throughput with liquid handling robots.
# The cells (80 μL of cells for 96 well plates) were plated in collagen coated tissue culture plates in RPMI or FreeStyle medium (Invitrogen) and incubated overnight. For manual analysis, 6 plates for GDF8, 6 plates for TGFβ, and optionally 6 plates for AlkSca(ALK5 constitutively active) were used.
# The compound dilution plates were prepared as follows: 12 μL of DMSO was transferred into first column of 96-well plate, and 16 μL of DMSO was transferred into columns 2-12 of the 96-well plate. 12 μL of compound solution was transferred into first column of the DMSO-containing 96-well plate. Three-fold dilution was performed up to column 10 of the DMSO-containing 96-well plate.
# Step C: Treatment and Analysis
# The plate containing cells were treated with compounds for about 10 minutes, and then ligand was added. GDF8 or TGFb was added to plates to stimulate. 293FL cells were stimulated for 90 minutes at 37° C.; and RMS13 cells were stimulated for 60 minutes at 37° C. The medium was then removed from the cells, and 1× Lysis Buffer (about 25 μL) was added and the plate was gently agitated on plate shaker for 5-10 minutes.
# The lysate (5 μL) was then placed into 384-well shallow plates avoiding the generation of bubbles. To this, the Reaction Buffer+Activation Buffer+AlphaScreen® Acceptor beads mixture (5 μL) was added. The plate was sealed with adhesive cover and shielded from light (e.g., with metal foil), and agitated gently on plate shaker for 2 hours at room temperature.
# Dilution buffer+AlphaScreen® Donor beads (2 μL) was then added, and the plate was intubated on the plate shaker for an additional 1½ hours. After completion, the plate was read on Synergy-4 or Enspire plate reader, using AlphaScreen® pSMAD3® settings.
# Representative results for inhibition of GDF8 signaling are shown in Table 2(data=GDF pSMAD (MPC11) (μM)): […]
row,SMILES,IC50 [µM]
1,"CS(=O)(=O)Nc1cccc(-c2ncccc2-c2ccc3[nH]ncc3c2)c1 [Compound 76, 5-(2-(3-Methylsulfphonylaminophenyl)pyridin-3-yl)-1H-indazole]",1.81
2,"Fc1ccc(-c2ncccc2-c2cnc3[nH]ncc3c2)cc1F [Compound 77, 5-(2-(3,4-Difluorophenyl)pyridin-3-yl)-1H-pyrazolo[3,4-b]pyridine]",3.65
3,"Cc1cc(-c2ncccc2-c2cnc3[nH]ncc3c2)ccc1F [Compound 78, 5-(2-(4-Fluoro-3-methylphenyl)pyridin-3-yl)-1H-pyrazolo[3,4-b]pyridine]",0.316
4,"Cc1cccc(-c2ncccc2-c2cnc3[nH]ncc3c2)c1 [Compound 79, 5-(2-m-Tolylpyridin-3-yl)-1H-pyrazolo[3,4-b]pyridine]",0.264
5,"Fc1ccc(-c2ncccc2-c2cnc3[nH]ncc3c2)cc1 [Compound 80, 5-(2-(4-Fluorophenyl)pyridin-3-yl)-1H-pyrazolo[3,4-b]pyridine]",6.33
6,"OCc1cc(-c2ncccc2-c2ccc3[nH]ncc3c2)ccc1F [Compound 89, (5-(3-(1H-Indazol-5-yl)pyridin-2-yl)-2-fluorophenyl)methanol]",2.55
7,"Cc1cc(-c2ncccc2-c2ccc3[nH]ncc3c2)ccc1N [Compound 90, 4-(3-(1H-Indazol-5-yl)pyridin-2-yl)-2-methylbenzenamine]",2.61
8,"OCc1cccc(-c2ncccc2-c2ccc3[nH]ncc3c2)c1 [Compound 91, [3-(3-(1H-Indazol-5-yl)pyridin-2-yl)phenyl]methanol]",3.03
9,"Fc1ccc(-c2ncccc2-c2ccc3[nH]ncc3c2)cc1C(F)(F)F [Compound 93, 5-(2-(4-Fluoro-3-(trifluoromethyl)phenyl)pyridin-3-yl)-1H-indazole]",4.83
10,"Fc1ccc(-c2ncccc2-c2ccc3cn[nH]c3c2)cc1F [Compound 98, 6-(2-(3,4-Difluorophenyl)pyridin-3-yl)-1H-indazole]",10.3
11,"Cc1cc(-c2ncccc2-c2ccc3cn[nH]c3c2)ccc1F [Compound 99, 6-(2-(4-Fluoro-3-methylphenyl)pyridin-3-yl)-1H-indazole]",0.894
12,"Fc1cccc(-c2ncccc2-c2ccc3cn[nH]c3c2)c1 [Compound 100, 6-(2-(3-Fluorophenyl)pyridin-3-yl)-1H-indazole]",6.03
13,"Fc1ccc(-c2ncccc2-c2ccc3cn[nH]c3c2)cc1 [Compound 101, 6-(2-(4-Fluorophenyl)pyridin-3-yl)-1H-indazole]",11.2
14,"Cc1cccc(-c2ncccc2-c2ccc3cn[nH]c3c2)c1 [Compound 102, 6-(2-m-Tolylpyridin-3-yl)-1H-indazole]",0.341
15,"Cc1cccc(-c2ncccc2-c2ccc3c(c2)OCO3)c1 [Compound 109, 3-(Benzo[d][1,3]dioxol-6-yl)-2-m-tolylpyridine]",17.2
16,"N#Cc1cccc(-c2ncccc2-c2ccc3[nH]ncc3c2)c1 [Compound 112, 3-(3-(1H-Indazol-5-yl)pyridin-2-yl)benzonitrile]",0.273
17,"COc1cccc(-c2ncccc2-c2ccc3[nH]ncc3c2)c1 [Compound 117, 5-(2-(3-Methoxyphenyl)pyridin-3-yl)-1H-indazole]",0.179
18,"COc1ccc(-c2ncccc2-c2ccc3[nH]ncc3c2)cc1 [Compound 118, 5-(2-(4-Methoxyphenyl)pyridin-3-yl)-1H-indazole]",3.79
19,"Oc1cccc(-c2ncccc2-c2ccc3[nH]ncc3c2)c1 [Compound 120, 3-(3-(1H-Indazol-5-yl)pyridin-2-yl)phenol]",0.363

# Now from value to compound:
row,IC50 [µM],SMILES
1,5.35,"Oc1ccc(-c2ncccc2-c2ccc3[nH]ncc3c2)cc1 [Compound 121, 4-(3-(1H-Indazol-5-yl)pyridin-2-yl)phenol]"
2,4.04,"Cc1cc(-c2ncccc2-c2ccc3[nH]ncc3c2)ccc1O [Compound 122, 4-(3-(1H-Indazol-5-yl)pyridin-2-yl)-2-methylphenol]"
3,0.548,"COc1cc(-c2ncccc2-c2ccc3[nH]ncc3c2)ccc1F [Compound 124, 5-(2-(4-Fluoro-3-methoxyphenyl)pyridin-3-yl)-1H-indazole]"
4,22.8,"Fc1ccc(-c2ncccc2-c2cnc3cn[nH]c3c2)cc1F [Compound 137, 6-(2-(3,4-Difluorophenyl)pyridin-3-yl)-1H-pyrazolo[4,3-b]pyridine]"
5,4.33,"Cc1cc(-c2ncccc2-c2cnc3cn[nH]c3c2)ccc1F [Compound 138, 6-(2-(4-Fluoro-3-methylphenyl)pyridin-3-yl)-1H-pyrazolo[4,3-b]pyridine]"
6,3.37,"Cc1cccc(-c2ncccc2-c2cnc3cn[nH]c3c2)c1 [Compound 139, 6-(2-m-Tolylpyridin-3-yl)-1H-pyrazolo[4,3-b]pyridine]"
7,2.89,"Cc1ccc(F)c(-c2ncccc2-c2cnc3cn[nH]c3c2)c1 [Compound 140, 6-(2-(2-Fluoro-5-methylphenyl)pyridin-3-yl)-1H-pyrazolo[4,3-b]pyridine]"
8,18.6,"N#Cc1cccc(-c2ncccc2-c2cnc3cn[nH]c3c2)c1 [Compound 141, 3-(3-(1H-Pyrazolo[4,3-b]pyridin-6-yl)pyridin-2-yl)benzonitrile]"
9,1.19,"COc1cccc(-c2ncccc2-c2cnc3cn[nH]c3c2)c1 [Compound 142, 6-(2-(3-Methoxyphenyl)pyridin-3-yl)-1H-pyrazolo[4,3-b]pyridine]"
10,12.2,"COc1cc(-c2ncccc2-c2cnc3cn[nH]c3c2)ccc1F [Compound 143, 6-(2-(4-Fluoro-3-methoxyphenyl)pyridin-3-yl)-1H-pyrazolo[4,3-b]pyridine]"
11,9.39,"Oc1cccc(-c2ncccc2-c2cnc3cn[nH]c3c2)c1 [Compound 144, 3-(3-(1H-Pyrazolo[4,3-b]pyridin-6-yl)pyridin-2-yl)phenol]"
12,1.13,"Cc1cc(-c2ncccc2-c2ccc3c(cnn3C)c2)ccc1F [Compound 145, 5-(2-(4-Fluoro-3-methylphenyl)pyridin-3-yl)-1-methyl-1H-indazole]"
13,0.621,"Cc1cccc(-c2ncccc2-c2ccc3c(cnn3C)c2)c1 [Compound 146, 1-Methyl-5-(2-m-tolylpyridin-3-yl)-1H-indazole]"
14,0.642,"CCc1cccc(-c2ncccc2-c2ccc3[nH]ncc3c2)c1 [Compound 149, 5-(2-(3-Ethylphenyl)pyridin-3-yl)-1H-indazole]"
15,0.208,"c1cc(-c2ncccc2-c2ccc3[nH]ncc3c2)cc(C2CC2)c1 [Compound 150, 5-(2-(3-Cyclopropylphenyl)pyridin-3-yl)-1H-indazole]"
16,0.678,"CCc1cccc(-c2ncccc2-c2cnc3[nH]ncc3c2)c1 [Compound 151, 5-(2-(3-Ethylphenyl)pyridin-3-yl)-1H-pyrazolo[3,4-b]pyridine]"
17,0.0487,"c1cc(-c2ncccc2-c2cnc3[nH]ncc3c2)cc(C2CC2)c1 [Compound 152, 5-(2-(3-Cyclopropylphenyl)pyridin-3-yl)-1H-pyrazolo[3,4-b]pyridine]"
18,0.45,"Cc1ccc(F)c(-c2ncccc2-c2cnc3[nH]ncc3c2)c1 [Compound 153, 5-(2-(2-Fluoro-5-methylphenyl)pyridin-3-yl)-1H-pyrazolo[3,4-b]pyridine]"
19,1.31,"N#Cc1cccc(-c2ncccc2-c2cnc3[nH]ncc3c2)c1 [Compound 154, 3-(3-(1H-Pyrazolo[3,4-b]pyridin-5-yl)pyridin-2-yl)benzonitrile]"
